Experimental data reported in US9376418B2, “Substituted pyridine spleen tyrosine kinase (SYK) inhibitors” (Merck Sharp & Dohme Corp., priority 2012, dated 2016).
pIC50: −log10 of the molar value.

molecular target: T1, recombinant human GST-SYK (Homo sapiens, UniProt P43405); experiment: Homogeneous Time-Resolved Fluorescence (HTRF) assay for the recombinant human Syk enzyme; assay type: biochemical; details: HTRF assay, recombinant human GST-SYK; IC50 given as class symbols; read-out: rhSYK Activity
T1 construct: purchased Carna Biosciences 08-176
Procedure, shortened: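 Phosphorylation of a biotinylated Syk substrate peptide (250 nM) was run for 45 min at room temperature with 25 μM ATP and 5 mM Mg. It followed a 10-min preincubation of GST-hSYK ([…]) with compound in 15 mM Tris-HCl pH 7.5, 2 mM DTT. Product was detected by time-resolved fluorescence using a europium anti-phosphotyrosine antibody plus SA-APC in EDTA-containing quench buffer.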

pIC50 | SMILES
6.00 to 7.00 | Cc1cc(Nc2nccc(C(F)(F)F)n2)cc(-c2ccc(C(=O)N3CCN(C)C(=O)C3C)nc2)c1 (stereo not shown) [Example 16.23, 1,3-dimethyl-4-{[5-(3-methyl-5-{[4-(trifluoromethyl)pyrimidin-2-yl]amino}phenyl)pyridin-2-yl]carbonyl}piperazin-2-one]
> 7.00 | Cc1cc(Nc2nccc(C(F)(F)F)n2)cc(-c2ccc(C(=O)NC3CCNC3=O)nc2)c1 (stereo not shown) [Example 16.26, 5-(3-methyl-5-{[4-(trifluoromethyl)pyrimidin-2-yl]amino}phenyl)-N-(2-oxopyrrolidin-3-yl)pyridine-2-carboxamide]
6.00 to 7.00 | C=C(F)CNC(=O)c1ccc(-c2cc(C)cc(Nc3nccc(C(F)(F)F)n3)c2)cn1 [Example 16.28, N-(2-fluoroprop-2-en-1-yl)-5-(3-methyl-5-{[4-(trifluoromethyl)pyrimidin-2-yl]amino}phenyl)pyridine-2-carboxamide]
> 7.00 | Cc1cc(Nc2nccc(C(F)(F)F)n2)cc(-c2ccc(C(=O)NCC3CCC(=O)N3)nc2)c1 (stereo not shown) [Example 16.30, 5-(3-methyl-5-{[4-(trifluoromethyl)pyrimidin-2-yl]amino}phenyl)-N-[(5-oxopyrrolidin-2-yl)methyl]pyridine-2-carboxamide]
6.00 to 7.00 | Cc1cc(Nc2nccc(C(F)(F)F)n2)cc(-c2ccc(C(=O)NCC3COCCO3)nc2)c1 (stereo not shown) [Example 16.31]

Further lines, the molecule ahead of its results:

SMILES | pIC50
Cc1cc(Nc2nccc(C(F)(F)F)n2)cc(-c2ccc(C(=O)N3CCN(C)C(=O)C3)nc2)c1 [Example 16.20, 1-methyl-4-{[5-(3-methyl-5-{[4-(trifluoromethyl)pyrimidin-2-yl]amino}phenyl)pyridin-2-yl]carbonyl}piperazin-2-one] | > 7.00
Cc1cc(Nc2nccc(C(F)(F)F)n2)cc(-c2ccc(C(=O)NC3(CO)CCCC3)nc2)c1 [Example 16.21, N-[1-(hydroxymethyl)cyclopentyl]-5-(3-methyl-5-{[4-(trifluoromethyl)pyrimidin-2-yl]amino}phenyl)pyridin-2-carboxamide] | 6.00 to 7.00
Cc1cc(Nc2nccc(C(F)(F)F)n2)cc(-c2ccc(C(=O)NC(C)c3ccccn3)nc2)c1 (stereo not shown) [Example 16.22, 5-(3-methyl-5-{[4-(trifluoromethyl)pyrimidin-2-yl]amino}phenyl)-N-(1-pyridin-2-ylethyl)pyridine-2-carboxamide] | 6.00 to 7.00
CC(=O)N1CCN(C(=O)c2ccc(-c3cc(C)cc(Nc4nccc(C(F)(F)F)n4)c3)cn2)CC1 [Example 16.24, N-(3-{6-[(4-acetylpiperazin-1-yl)carbonyl]pyridin-3-yl}-5-methylphenyl)-4-(trifluoromethyl)pyrimidin-2-amine] | > 7.00
Cc1cc(Nc2nccc(C(F)(F)F)n2)cc(-c2ccc(C(=O)N(C)CCC3OCCO3)nc2)c1 [Example 16.25, N-[2-(1,3-dioxolan-2-yl)ethyl]-N-methyl-5-(3-methyl-5-{[4-(trifluoromethyl)pyimidin-2-yl]amino}phenyl)pyridine-2-carboxamide] | 6.00 to 7.00
Cc1cc(Nc2nccc(C(F)(F)F)n2)cc(-c2ccc(C(=O)NCc3ncnn3C)nc2)c1 [Example 16.27, N-[(1-methyl-1H-1,2,4-triazol-5-yl)methyl]-5-(3-methyl-5-{[4-(trifluoromethyl)pyrimidin-2-yl]amino}phenyl)pyridine-2-carboxamide] | 6.00 to 7.00
Cc1cc(Nc2nccc(C(F)(F)F)n2)cc(-c2ccc(C(=O)Nc3cncnc3)nc2)c1 [Example 16.29, 5-(3-methyl-5-{[4-(trifluoromethyl)pyrimidin-2-yl]amino}phenyl)-N-pyrimidin-5-ylpyridine-2-carboxamide] | 6.00 to 7.00
Cc1cc(Nc2nccc(C(F)(F)F)n2)cc(-c2ccc(C(=O)N3CCn4ccnc4C3)nc2)c1 [Example 16.32, N-{3-[6-(5,6-dihydroimidazo[1,2-a]pyrazin-7(8H)-ylcarbonyl)pyridin-3-yl]-5-methylphenyl}-4-(trifluoromethyl)pyrimidin-2-amine] | > 7.00
